As usually defined, the IC50 is the concentration needed to halve the response being measured. Lower therefore signals greater potency in that assay.

The test addresses Cyclin-dependent kinase 2/cyclin A (Homo sapiens, UniProt P24941). Briefly: Inhibition of CDK2/cyclinA (unknown origin). In kind it is protein-complex assay.
On to `CCOc1nc(Nc2ccc(OC)cc2)nc(N)c1C=O`, for which the IC50 turned out to be 1900 nM.

Consider `Nc1nc(N)c([N+](=O)[O-])c(OCC2CCCCC2)n1`, for which the IC50 was 8300 nM.

For `COc1ccc(Nc2nc(N)c(C=O)c(OC(C)C)n2)cc1`, half-maximal inhibition (IC50) was put at 1800 nM.

`Nc1nc(Nc2ccc(C(=O)O)cc2)nc(OCC2CCCCC2)c1C=O` displayed an IC50 of 610 nM.

`O=Nc1cnc(Nc2ccc(S(=O)(=O)NCC3CCCO3)cc2)nc1OCC1CCCCC1` (stereo not drawn) displayed an IC50 of 8.1 nM.

`Nc1nc(N)c(-c2ccco2)c(OCC2CCCCC2)n1` displayed an IC50 of 56300 nM.

`Nc1nc(Nc2ccc(C(=O)O)cc2)nc(OCC2CCCCC2)c1N=O` had an IC50 of 110 nM.

`Nc1nc(Nc2ccc(S(N)(=O)=O)cc2)nc(OCC2CCCCC2)c1C=O` displayed an IC50 of 49 nM.

`N#Cc1c(N)nc(N)nc1OCC1CCCCC1` came in with an IC50 of 61000 nM.

In turn, `CCN(CC)S(=O)(=O)c1ccc(Nc2ncc(N=O)c(OCC3CCCCC3)n2)cc1` showed an IC50 of 86 nM.

In turn, `CCN(CC)C(=O)c1ccc(Nc2nc(N)c(N=O)c(OCC3CCCCC3)n2)cc1` yielded an IC50 of 200 nM.

Consider `O=Nc1cnc(Nc2ccc(S(=O)(=O)Nc3nccs3)cc2)nc1OCC1CCCCC1`, for which the IC50 was found to be 19 nM.

Take `CCOc1nc(Nc2ccc(S(N)(=O)=O)cc2)nc(N)c1C=O`: half-maximal inhibition (IC50) was put at 49 nM.

In the case of `CCOc1nc(Nc2ccc(S(N)(=O)=O)cc2)nc(N)c1N=O`, 93 nM corresponded to half-maximal inhibition (IC50).

In the case of `N#CCc1cccc(Nc2nc(N)c(N=O)c(OCC3CCCCC3)n2)c1`, the IC50 turned out to be 33 nM.

The compound `Nc1nc(Nc2ccc(S(N)(=O)=O)cc2)nc(OCC2CCCCC2)c1/C=N/O` came in with an IC50 of 117 nM.

As for `N#CCc1ccc(Nc2nc(N)cc(OCC3CCCCC3)n2)cc1`, the IC50 turned out to be 24000 nM.

`COc1ccc(Nc2nc(N)c(/C=N/O)c(OCC3CCCCC3)n2)cc1` yielded an IC50 of 8300 nM.

Compound `O=Nc1cnc(Nc2cccc(CO)c2)nc1OCC1CCCCC1` displayed an IC50 of 45 nM.

For the compound `Nc1nc(N)c(-c2cccs2)c(OCC2CCCCC2)n1`, the IC50 came out at 55000 nM.

For the compound `COc1nc(N)nc(N)c1N=O`, the IC50 worked out at 79000 nM.

`Brc1cccc(Nc2nccc(OCC3CCCCC3)n2)c1` showed an IC50 of 26000 nM.

For the compound `NC(=O)c1ccc(Nc2ncc(N=O)c(OCC3CCCCC3)n2)cc1`, it took 34 nM to reach half-maximal inhibition (IC50).

Turning to `CC[C@@H](C)Oc1nc(Nc2ccc(S(N)(=O)=O)cc2)ncc1C=O`, the half-inhibitory concentration (IC50) stood at 13.1 nM.

Consider `CSc1cccc(Nc2nc(N)c(N=O)c(OCC3CCCCC3)n2)c1`, for which the IC50 came to 400 nM.

In turn, `COc1cccc(Nc2ncc(N=O)c(OCC3CCCCC3)n2)c1` came in with an IC50 of 340 nM.

For the compound `O=Nc1cnc(Nc2cccc(Br)c2)nc1OCC1CCCCC1`, the IC50 was found to be 500 nM.

`CC(C)Oc1nc(Nc2ccc(S(N)(=O)=O)cc2)nc(N)c1C=O` came in with an IC50 of 26 nM.

Values taken from ChEMBL document CHEMBL3045022, “The discovery of potential cyclin A/CDK2 inhibitors: a combination of 3D QSAR pharmacophore modeling, virtual screening, and molecular docking studies” (Med Chem Res, 2013).
